In ChEMBL document CHEMBL1153387 (J Med Chem, 2009):
pEC50, pIC50, pKi: −log10 of the molar value. Activity calls are given as the source filed them. The rule behind the calls is not given here. Starred links: 1 amine or outer side, 2 acyl side, 3 side chain; linkers in the order of their positions; H or OH if unused. Non-standard residues stand in square brackets, D forms with d. Residues, ends and D or L forms follow the SMILES beside them. *: point of attachment. NMeβ3hLys = CN([C@@H](CCCCN)CC(=O)[*:2])[*:1]; Pentanoyl(5-guanidino) = NC(N)=NCCCCC(=O)*; αMeR = C[C@](N)(CCCNC(=N)N)C(=O)O; Tle = CC(C)(C)[C@H](N)C(=O)O; β3hK = NCCCC[C@H](N)CC(=O)O; Ahp = NCCCCCCC(=O)O

How the values were obtained:
[1] = Metabolic stability in human serum assessed as half time of disappearance at 1 mM by MALDI-TOF mass spectrometry assay; format: ADME, cell-free; details: read-out: T50
[2] = Metabolic stability in rat serum assessed as half time of disappearance at 1 mM by MALDI-TOF mass spectrometry assay; format: ADME, cell-free; details: read-out: T50
Serum [3] = experiment: Metabolic stability in human serum assessed as compound degradation rate at 1 mM by MALDI-TOF mass spectrometry assay; format: ADME, cell-free; details: 1000 µM
Serum [4] = experiment: Metabolic stability in rat serum assessed as compound degradation rate at 1 mM by MALDI-TOF mass spectrometry assay; format: ADME, cell-free; details: 1000 µM
Rattus norvegicus [5] = experiment: Hypothermic activity in Sprague-Dawley rat assessed as time duration of maximal body temperature decrease at 5 mg/kg, ip; format: functional; details: route intraperitoneal
Rattus norvegicus [6] = experiment: Hypothermic activity in Sprague-Dawley rat assessed as decrease in core body temperature at 5 mg/kg, ip at time of maximal body temperature decrease; format: functional; details: route intraperitoneal
[7] = biological target: T1, Neurotensin receptor type 1 (Homo sapiens, UniProt P30989); experiment: Displacement of [125I]I-Tyr(3)NT from human NTR1
T1 sequence (P30989 whole entry): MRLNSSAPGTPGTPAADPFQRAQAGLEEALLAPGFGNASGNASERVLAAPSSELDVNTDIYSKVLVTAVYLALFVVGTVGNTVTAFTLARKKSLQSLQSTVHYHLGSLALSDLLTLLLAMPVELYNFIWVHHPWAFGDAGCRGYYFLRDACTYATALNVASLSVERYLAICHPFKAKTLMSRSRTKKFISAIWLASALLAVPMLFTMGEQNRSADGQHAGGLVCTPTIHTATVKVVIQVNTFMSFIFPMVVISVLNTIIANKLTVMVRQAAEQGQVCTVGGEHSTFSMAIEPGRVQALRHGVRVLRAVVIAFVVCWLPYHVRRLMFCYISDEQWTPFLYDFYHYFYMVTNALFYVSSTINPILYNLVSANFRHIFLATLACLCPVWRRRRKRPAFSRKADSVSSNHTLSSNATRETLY

[8] = biological target: T1, Neurotensin receptor type 1; experiment: Agonist activity at NTR1 in human HT-29 cells assessed as increase in intracellular calcium concentration by FLIPR assay; format: functional, cell-based
[9] = biological target: T1, Neurotensin receptor type 1; experiment: Agonist activity at NTR1 in human HT-29 cells assessed as increase in intracellular calcium concentration in presence of NTR1 antagonist SR-48692 by FLIPR assay; format: functional, cell-based

## CC[C@H](C)[C@H](NC(=O)[C@H](Cc1ccc(O)cc1)NC(=O)[C@@H]1CCCN1C(=O)[C@H](CCCNC(=N)N)NC(=O)[C@@H](N)CCCNC(=N)N)C(=O)N[C@@H](CC(C)C)C(=O)O
[1]
  half-life at 1000 µM: 0.282 h
[2]
  half-life at 1000 µM: 0.167 h
Serum [3]
  Activity: 29.6 µmol/min
Serum [4]
  Activity: 49.8 µmol/min

## CC[C@H](C)[C@H](NC(=O)[C@H](Cc1ccc(O)cc1)NC(=O)[C@@H]1CCCN1C(=O)[C@H](CCCN=C(N)N)NC(=O)[C@@H](N)CCCN=C(N)N)C(=O)N[C@@H](CC(C)C)C(=O)O
Rattus norvegicus [5]
  Time: 300 min
Rattus norvegicus [6]
  Activity: -0.55 °C

## CC[C@H](C)[C@H](NC(=O)[C@H](Cc1ccc(O)cc1)NC(=O)[C@@H]1CCCN1C(=O)[C@H](CCCNC(=N)N)NC(=O)[C@H](CCCNC(=N)N)NC(C)=O)C(=O)N[C@@H](CC(C)C)C(=O)O
[1]
  half-life at 1000 µM: 11.9 h
[2]
  half-life at 1000 µM: 3.5 h
Serum [3]
  Activity: 0.701 µmol/min
Serum [4]
  Activity: 2.38 µmol/min

## CC[C@H](C)[C@H](NC(=O)[C@H](Cc1ccc(O)cc1)NC(=O)[C@@H]1CCCN1C(=O)[C@H](CCCN=C(N)N)NC(=O)[C@H](CCCN=C(N)N)NC(C)=O)C(=O)N[C@@H](CC(C)C)C(=O)O
Rattus norvegicus [5]
  Time: 90 min
Rattus norvegicus [6]
  Activity: -0.71 °C

## CC[C@@H](C)[C@H](NC(=O)[C@H](Cc1ccc(O)cc1)NC(=O)[C@@H]1CCCN1C(=O)[C@H](CCCNC(=N)N)NC(=O)[C@H](CCCNC(=N)N)NC)C(=O)N[C@@H](CC(C)C)C(=O)O
[1]
  half-life at 1000 µM: 14 h
[2]
  half-life at 1000 µM: 4.33 h
[7]
  pIC50: 9.42
  pKi: 9.54
[8]
  pEC50: 9.07
Rattus norvegicus [5]
  Time: 120 min
Rattus norvegicus [6]
  Activity: -1.55 °C
Serum [3]
  Activity: 0.593 µmol/min
Serum [4]
  Activity: 1.92 µmol/min

## CC[C@@H](C)[C@H](NC(=O)[C@H](Cc1ccc(O)cc1)NC(=O)[C@@H]1CCCN1C(=O)[C@H](CCCNC(=N)N)NC(=O)[C@@](C)(N)CCCNC(=N)N)C(=O)N[C@@H](CC(C)C)C(=O)O
[1]
  half-life at 1000 µM: 18.8 h
[2]
  half-life at 1000 µM: 3.65 h
Rattus norvegicus [5]
  Time: 150 min
Rattus norvegicus [6]
  Activity: -0.28 °C
Serum [3]
  Activity: 0.444 µmol/min
Serum [4]
  Activity: 2.28 µmol/min

## CC[C@@H](C)[C@H](NC(=O)[C@H](Cc1ccc(O)cc1)NC(=O)[C@@H]1CCCN1C(=O)[C@H](CCCN=C(N)N)NC(=O)[C@H](CCCN=C(N)N)N=[N+]=[N-])C(=O)N[C@@H](CC(C)C)C(=O)O
[1]
  half-life at 1000 µM: 5.05 h
[2]
  half-life at 1000 µM: 2.35 h
[7]
  pIC50: 9.01
  pKi: 9.14
[8]
  pEC50: 9.11
Serum [3]
  Activity: 1.65 µmol/min
Serum [4]
  Activity: 3.53 µmol/min

## CC[C@@H](C)[C@H](NC(=O)[C@H](Cc1ccc(O)cc1)NC(=O)[C@@H]1CCCN1C(=O)[C@H](CCCNC(=N)N)NC(=O)[C@H](CCCNC(=N)N)N=[N+]=[N-])C(=O)N[C@@H](CC(C)C)C(=O)O
[9]
  Activity: inactive
Rattus norvegicus [5]
  Time: 240 min
Rattus norvegicus [6]
  Activity: -1 °C

## CC[C@@H](C)[C@H](NC(=O)[C@H](Cc1ccc(O)cc1)NC(=O)[C@@H]1CCCN1C(=O)[C@H](CCCNC(=N)N)NC(=O)CCCCNC(=N)N)C(=O)N[C@@H](CC(C)C)C(=O)O
[1]
  half-life at 1000 µM: 3.83 h
[2]
  half-life at 1000 µM: 1.45 h
[7]
  pIC50: 8.57
  pKi: 8.70
[8]
  pEC50: 8.73
Rattus norvegicus [5]
  Time: 120 min
Rattus norvegicus [6]
  Activity: -0.99 °C
Serum [3]
  Activity: 2.17 µmol/min
Serum [4]
  Activity: 5.74 µmol/min

## CC(=O)N[C@@H](CCCNC(=N)N)C(=O)N[C@@H](CCCCN)C(=O)N1CCC[C@H]1C(=O)N[C@@H](Cc1c[nH]c2ccccc12)C(=O)N[C@H](C(=O)N[C@@H](CC(C)C)C(=O)O)C(C)(C)C (Ac-RKPW[Tle]L-OH)
[1]
  half-life at 1000 µM: 124 h
[2]
  half-life at 1000 µM: 94.3 h
[7]
  pIC50: 6.06
  pKi: 6.19
[8]
  pEC50: 6.12
Rattus norvegicus [5]
  Time: 270 min
Rattus norvegicus [6]
  Activity: -4.3 °C
Serum [3]
  Activity: 0.068 µmol/min
Serum [4]
  Activity: 0.089 µmol/min

## CC(=O)N[C@@H](CCCCN)CC(=O)N[C@@H](CCCN=C(N)N)C(=O)N1CCC[C@H]1C(=O)N[C@@H](Cc1ccc(O)cc1)C(=O)N[C@H](C(=O)N[C@@H](CC(C)C)C(=O)O)C(C)(C)C (Ac-[β3hK]RPY[Tle]L-OH)
[1]
  half-life at 1000 µM: 54.5 h
[2]
  half-life at 1000 µM: 57 h
[7]
  pIC50: 6.74
  pKi: 6.87
[8]
  pEC50: 7.24
Serum [3]
  Activity: 0.153 µmol/min
Serum [4]
  Activity: 0.146 µmol/min

## CC(=O)N[C@@H](CCCCN)CC(=O)N[C@@H](CCCNC(=N)N)C(=O)N1CCC[C@H]1C(=O)N[C@@H](Cc1ccc(O)cc1)C(=O)N[C@H](C(=O)N[C@@H](CC(C)C)C(=O)O)C(C)(C)C (Ac-[β3hK]RPY[Tle]L-OH)
Rattus norvegicus [5]
  Time: 150 min
Rattus norvegicus [6]
  Activity: -3.54 °C

## CC(C)C[C@H](NC(=O)[C@@H](NC(=O)[C@H](Cc1c[nH]c2ccccc12)NC(=O)[C@@H]1CCCN1C(=O)[C@H](CCCCN)NC(=O)[C@@H](N)CCCN=C(N)N)C(C)(C)C)C(=O)O (H-RKPW[Tle]L-OH)
[1]
  half-life at 1000 µM: 0.263 h
[2]
  half-life at 1000 µM: 0.225 h
[7]
  pIC50: 6.39
  pKi: 6.52
[8]
  pEC50: 6.66
Serum [3]
  Activity: 31.8 µmol/min
Serum [4]
  Activity: 37 µmol/min

## CC(C)C[C@H](NC(=O)[C@@H](NC(=O)[C@H](Cc1c[nH]c2ccccc12)NC(=O)[C@@H]1CCCN1C(=O)[C@H](CCCCN)NC(=O)[C@@H](N)CCCNC(=N)N)C(C)(C)C)C(=O)O (H-RKPW[Tle]L-OH)
Rattus norvegicus [5]
  Time: 120 min
Rattus norvegicus [6]
  Activity: -2.11 °C

## CC(C)C[C@H](NC(=O)[C@@H](NC(=O)[C@H](Cc1ccc(O)cc1)NC(=O)[C@@H]1CCCN1C(=O)[C@H](CCCNC(=N)N)NC(=O)CCCCCCN)C(C)(C)C)C(=O)O (H-[Ahp]RPY[Tle]L-OH)
[1]
  half-life at 1000 µM: 41 h
[2]
  half-life at 1000 µM: 74.8 h
[7]
  pIC50: 8.40
  pKi: 8.52
[8]
  pEC50: 7.59
Rattus norvegicus [5]
  Time: 90 min
Rattus norvegicus [6]
  Activity: -2.58 °C
Serum [3]
  Activity: 0.204 µmol/min
Serum [4]
  Activity: 0.111 µmol/min

## CC(C)C[C@H](NC(=O)[C@@H](NC(=O)[C@H](Cc1c[nH]c2ccccc12)NC(=O)[C@@H]1CCCN1C(=O)[C@H](CCCCN)NC(=O)[C@@](C)(N)CCCNC(=N)N)C(C)(C)C)C(=O)O (H-[αMeR]KPW[Tle]L-OH)
[1]
  half-life at 1000 µM: 132 h
[2]
  half-life at 1000 µM: 87.8 h
[7]
  pIC50: 5.54
  pKi: 5.66
[8]
  pEC50: 5.73
Rattus norvegicus [5]
  Time: 120 min
Rattus norvegicus [6]
  Activity: -4.28 °C
Serum [3]
  Activity: 0.064 µmol/min
Serum [4]
  Activity: 0.095 µmol/min

## CN[C@@H](CCCCN)CC(=O)N[C@@H](CCCN=C(N)N)C(=O)N1CCC[C@H]1C(=O)N[C@@H](Cc1ccc(O)cc1)C(=O)N[C@H](C(=O)N[C@@H](CC(C)C)C(=O)O)C(C)(C)C (NMeβ3hLys-RPY[Tle]L-OH)
[1]
  half-life at 1000 µM: 57.2 h
[2]
  half-life at 1000 µM: 71.8 h
[7]
  pIC50: 7.57
  pKi: 7.69
[8]
  pEC50: 8.10
Serum [3]
  Activity: 0.146 µmol/min
Serum [4]
  Activity: 0.117 µmol/min

## CN[C@@H](CCCCN)CC(=O)N[C@@H](CCCNC(=N)N)C(=O)N1CCC[C@H]1C(=O)N[C@@H](Cc1ccc(O)cc1)C(=O)N[C@H](C(=O)N[C@@H](CC(C)C)C(=O)O)C(C)(C)C (NMeβ3hLys-RPY[Tle]L-OH)
Rattus norvegicus [5]
  Time: 180 min
Rattus norvegicus [6]
  Activity: -3.68 °C

## CC(C)C[C@H](NC(=O)[C@@H](NC(=O)[C@H](Cc1c[nH]c2ccccc12)NC(=O)[C@@H]1CCCN1C(=O)[C@H](CCCCN)NC(=O)CCCCNC(=N)N)C(C)(C)C)C(=O)O ({Pentanoyl(5-guanidino)}-KPW[Tle]L-OH)
[1]
  half-life at 1000 µM: 103 h
[2]
  half-life at 1000 µM: 108 h
[7]
  pIC50: 6.07
  pKi: 6.20
[8]
  pEC50: 6.11
Rattus norvegicus [5]
  Time: 240 min
Rattus norvegicus [6]
  Activity: -5.02 °C
Serum [3]
  Activity: 0.081 µmol/min
Serum [4]
  Activity: 0.078 µmol/min

## COc1cccc(OC)c1-c1cc(C(=O)NC2(C(=O)O)C3CC4CC(C3)CC2C4)nn1-c1ccnc2cc(Cl)ccc12 (stereo not given) [REMINERTANT]
[7]
  pIC50: 9.00
